According to patent publication US20080206761A1, “Ex Vivo Gene Expression in Whole Blood as a Model of Assessment of Individual Variation to Dietary Supplements” (priority 2005, published 2008):

Tested on: TNF-α mRNA
Assay: PHA-induced TNF-α mRNA expression in heparinized whole blood ex vivo
Assay type: cell-based, human
Conditions: supplement 30 min, then 100 μg/mL PHA 2 h, concentrations per footnote
Experimental: In this embodiment, phytohemagglutinin-induced gene expression of interleukin-2 (IL-2), interleukin-4 (IL-4), and tumor necrosis factor-α (TNF-α) were quantitated in the following manner. Fifty μL of heparinized whole blood was incubated with various dietary supplements for a period of 30 minutes. The following supplements were employed: vitamins A, C, and D, epigallocatechin gallate (from green tea), genistein (from soy), and curcumin (from the spice turmeric). Vitamin A is known to stimulate the immune system. […] Vitamin D appears to have protective effects against certain cancers. Epigallocatechin gallate is a powerful antioxidant, appears to reduce the multidrug resistance found in cancer cells, and preferentially induces apoptosis in neoplastic cells. Genistein has been found in some studies to have anticarcinogenic activity; possible mechanisms of action include upregulation of apoptosis, inhibition of angiogenesis, inhibition of DNA topoisomerase II and inhibition of protein tyrosine kinases. Curcumin has proapoptotic effects in neoplastic cells and interferes with the activity of the transcription factor NF-κB, which is often highly overexpressed in such cells.
After incubation with the dietary supplement, 100 μg/mL phytohemagglutinin (PHA) was added and incubation was continued for an additional 2 hours at 37° C. The concentration of each dietary supplement (see Table I, note) was slightly higher than reported blood levels. Then mRNA was purified, cDNA was synthesized, and the levels of IL-2, IL-4, and TNF-α were quantitated by TaqMan real time polymerase chain reaction (PCR) (see Holland, et al., “Detection of specific polymerase chain reaction product by utilizing the 5′ to 3′ exonuclease activity of Thermus aquaticus DNA polymerase,” Proc Natl Acad Sci USA 1991; 88: 7276-80), as described below.
The mRNA and cDNA were prepared from the whole blood that was exposed to the dietary components, as well as the whole blood which remained unexposed. In brief, home-made 96-well filterplates were placed over collection plates, and 150 μl 5 mM Tris, pH 7.4, was applied. Following centrifugation at 120×g for 1 min at 4° C., 50 μl of blood samples were applied to each well and immediately centrifuged at 120×g for 2 min at 4° C., followed by washing of each well with 300 μl PBS once with centrifugation at 2000×g for 5 min at 4° C. Then, 60 μl stock lysis buffer, containing for example 0.5% N-Lauroylsarcosine, 4×SSC, 10 mM Tris HCl, pH 7.4, 1 mM EDTA, 0.1% IGEPAL CA-630, and 1.791 M guanidine thiocyanate, supplemented with 1% 2-mercaptoethanol (Bio Rad, Hercules, Calif., USA), 0.5 mg/ml proteinase K (Pierce, Rockford, Ill., USA), 0.1 mg/ml salmon sperm DNA (5 Prime Eppendorf/Brinkmann, Westbury, N.Y., USA), 0.1 mg/ml E. coli tRNA (Sigma), a cocktail of 10 mM each of the specific reverse primers shown in Table 2, and standard RNA34 oligonucleotides, were applied to the filterplates, followed by incubation at 37° C. for 10 min. The filterplates were then placed over oligo(dT)-immobilized microplates (GenePlate, RNAture), and centrifuged at 2000×g for 5 min at 4° C. Following overnight storage at 4° C., the microplates were washed with 100 μl plain lysis buffer 3 times, followed by 150 μl of wash buffer (0.5 M NaCl, 10 mM Tris, pH 7.4, 1 mM EDTA) 3 times at 4° C. The cDNA was directly synthesized in each well by adding 30 μl of buffer containing 1×RT-buffer, 1.25 mM each of dNTP, 4 units rRNasin, and 80 units of MMLV reverse transcriptase (Promega) (without primers), and incubation at 37° C. for 2 hours. The specific primer-primed cDNA existed in solution, and oligo(dT)-primed cDNA stayed immobilized in the microplate. […]

For CC1=C(/C=C/C(C)=C/C=C/C(C)=C/CO)C(C)(C)CCC1 [VA, vitamin A], the “ΔΔCt (mean ± standard deviation, n = 3), TNFα mRNA” value (Subject 1) was −1.56 ± 0.11, the “ΔΔCt (mean ± standard deviation, n = 3), TNFα mRNA” value (Subject 2) was −0.57 ± 0.94 and the “ΔΔCt (mean ± standard deviation, n = 3), TNFα mRNA” value (Subject 3) was 0.51 ± 0.03. The “ΔΔCt (mean ± standard deviation, n = 3), TNFα mRNA” value (Subject 4) was −0.08 ± 0.29, the “ΔΔCt (mean ± standard deviation, n = 3), TNFα mRNA” value (Subject 5) was −0.76 ± 0.34 and the “ΔΔCt (mean ± standard deviation, n = 3), TNFα mRNA” value (Subject 6) was −0.50 ± 0.10. For the same compound, the “ΔΔCt (mean ± standard deviation, n = 3), TNFα mRNA” value (Subject 7) was −1.11 ± 0.24.
